In brackets after ≈: the same amount, converted by molar mass.
Assays:
[1] = tested on: Staphylococcus aureus SA-1 (UC-76); experiment: Microbroth dilution MIC testing against S. aureus; type: cell-based; conditions: S. aureus UC76, CAMHB, 35° C., 16 to 24 hours, read-out: Minimum Inhibitory Concentration S. aureus UC76
Procedure: (§1) In this example, the in vitro antibacterial activity of selected compounds was determined against S. aureus and H. influenzae. Except for clarifying or modifying statements, MIC testing followed procedures recommended by the NCCLS^1-2 or followed the descriptions cited below.
(§2) Bacterial Cultures At least the following organisms are included in the screen: Staphylococcus aureus SA-1 (UC-76) and H. influenzae HI-3542. Incubations were at 35° C. Stock bacterial cultures were maintained on Tryptic Soy Agar containing 5% Sheep Blood (BD, Becton Dickinson Microbiology Systems, Cockeysville, Md.), anaerobes were maintained on Anaerobic Blood Agar plates—CDC Formulation (BD), and fastidious organisms were maintained on Chocolate Agar II Plates (BD). Specific conditions of handling are listed below.
(§3) Standardized Organism Inocula Frozen stock cultures were used as the initial source of organisms for performing microbroth dilution MIC testing. Stock cultures were passed on their standard growth medium for at least 1 growth cycle (18 24 hours) prior to their use.
(§4) Most bacteria, unless otherwise noted, were prepared directly from agar plates in 10 mL aliquots of the appropriate broth medium. Bacterial cultures were adjusted to the opacity of a 0.5 McFarland Standard (optical density value of 0.28-0.33 on a Perkin-Elmer Lambda EZ150 Spectrophotometer Wellesley, Mass., set at a wavelength of 600 nm).). The adjusted cultures were diluted 400 fold (0.25 mL inoculum+100 mL broth) in growth media to produce a starting suspension of approximately 5×10^5 colony forming units (CFU)/mL. Unless otherwise noted, bacterial strains were tested in cation adjusted Mueller Hinton Broth (CAMHB).
(§5) Test Compound (“Drug”) Preparation Compounds were solubilized in DMSO. Drug stock solutions were prepared on the day of testing. Drugs were weight corrected for assay content where necessary.
(§6) Drug Dilution Tray Preparation Microbroth dilution stock plates were prepared in two dilution series, 64 to 0.06 μg drug/mL and 0.25 to 0.00025 μg drug/mL. For the high concentration series, 200 μL of stock solution (2 mg/mL) was added to duplicate rows of a 96-well microtiter plate. This was used as the first well in the dilution series. Serial two-fold decremental dilutions were made using a BioMek FX robot (Beckman Coulter Inc., Fullerton, Calif.) with 10 of the remaining 11 wells, each of which contained 100 μL of the appropriate solvent/diluent. Row 12 contained solvent/diluent only and served as the control. For tube one of the low concentration series, 200 μL of an 8 μg/mL stock was added to duplicate rows of a 96-well plate. Serial two-fold dilutions were made as described above.
(§7) Daughter plates were spotted (3.2 μL/well) from the stock plates listed above using the BioMek FX robot and were either used immediately or frozen at −70° C. until use.
(§8) Plate Inoculation Aerobic organisms were inoculated (100 μL volumes) into the thawed plates using the BioMek FX robot. The inoculated plates were placed in stacks of no more than 5 and covered with an empty plate. These plates were incubated 16 to 24 hours in ambient atmosphere according to CLSI guidelines^2.
(§9) Reading the Test After inoculation and incubation, the degree of bacterial growth was estimated visually with the aid of a Test Reading Mirror (Dynex Technologies 220 16) in a darkened room with a single light shining directly through the top of the microbroth tray. The MIC was the lowest concentration of drug that prevented macroscopically visible growth under the conditions of the test. Testing was performed in duplicate. When the MIC values in duplicate tests varied by 1 well (2 fold), the lower values were reported. If the MICs varied by 2 dilutions, the middle value was reported. Greater than this 4 fold variance called for the test to be repeated, after which a similar determination was applied to all values.

H. influenzae HI-3542 = experiment: Microbroth dilution MIC testing against H. influenzae; type: cell-based; conditions: HI3542, H. influenzae 3542, Haemophilus Test Medium, 35° C., 16 to 24 hours, read-out: Minimum Inhibitory Concentration H. influenzae 3542
Procedure: as §1, §2
Haemophilus was maintained on Chocolate Agar II Plates at room temperature in a candle jar providing a 3 5% CO2 atmosphere.
as §3, §4
Haemophilus influenzae strains were grown on Chocolate Agar II Plates and tested in Haemophilus Test Medium (Remel, Lenexa, Kans.).
as §5, §6, §7, §8
as §9, with “Greater than this 4 fold variance called for the test to be repeated, after which a similar determination was applied to all values.” left out

`C[C@H]1CN2c3c(cc(-c4cnccn4)c(N4CCOCC4)c3F)CC3(C(=O)NC(=O)NC3=O)[C@@H]2[C@@H](C)O1` (relative stereo) [Compound 16, rel-(2S,4R,4aR)-10-fluoro-2,4-dimethyl-9-morpholin-4-yl-8-pyrazin-2-yl-1,2,4,4a-tetrahydro-2′H,6H-spiro[1,4-oxazino[4,3-a]quinoline-5,5′-pyrimidine]-2′,4′,6′(1′H,3′H)-trione] showed an MIC [1] of over 64 µg/mL and an MIC (H. influenzae HI-3542) of over 64 µg/mL.

Work on `C[C@@H]1CN2c3c(cc(-c4cnccn4)c(F)c3F)CC3(C(=O)N(CN4CCN(C)CC4)C(=O)N(CN4CCN(C)CC4)C3=O)[C@H]2[C@H](C)O1` [Compound 5, (2R,4S,4aS)-9,10-difluoro-2,4-dimethyl-1′,3′-bis[(4-methylpiperazin-1-yl)methyl]-8-pyrazin-2-yl-1,2,4,4a-tetrahydro-2′H,6H-spiro[1,4-oxazino[4,3-a]quinoline-5,5′-pyrimidine]-2′,4′,6′(1′H,3′H)-trione] yielded an MIC [1] of 0.5 µg/mL (≈ 0.749 µM) and an MIC (H. influenzae HI-3542) of 1 µg/mL (≈ 1.5 µM).

With `C[C@@H]1CN2c3c(cc(-c4cnc(N)cn4)c(F)c3F)CC3(C(=O)NC(=O)NC3=O)[C@H]2[C@H](C)O1` [Compound 22, (2R,4S,4aS)-8-(5-aminopyrazin-2-yl)-9,10-difluoro-2,4-dimethyl-1,2,4,4a-tetrahydro-2′H,6H-spiro[1,4-oxazino[4,3-a]quinoline-5,5′-pyrimidine]-2′,4′,6′(1′H,3′H)-trione] the MIC [1] was 0.5 µg/mL (≈ 1.09 µM) and the MIC (H. influenzae HI-3542) was 0.5 µg/mL (≈ 1.09 µM).

`C[C@@H]1CN2c3c(cc(-c4cnccn4)c(F)c3F)CC3(C(=O)NC(=O)NC3=O)[C@H]2[C@H](C)O1` [Compound 2, (2R,4S,4aS)-9,10-difluoro-2,4-dimethyl-8-pyrazin-2-yl-1,2,4,4a-tetrahydro-2′H,6H-spiro[1,4-oxazino[4,3-a]quinoline-5,5′-pyrimidine]-2′,4′,6′(1′H,3′H)-trione] was tested, and the MIC [1] was 0.125 µg/mL (≈ 0.282 µM) and the MIC (H. influenzae HI-3542) was 0.5 µg/mL (≈ 1.13 µM).

`C[C@H]1CN2c3ccc(-c4cnccn4)cc3CC3(C(=O)NC(=O)NC3=O)[C@@H]2[C@@H](C)O1` (relative stereo) [Compound 20, rel-(2S,4R,4aR)-2,4-dimethyl-8-pyrazin-2-yl-1,2,4,4a-tetrahydro-2′H,6H-spiro[1,4-oxazino[4,3-a]quinoline-5,5′-pyrimidine]-2′,4′,6′(1′H,3′H)-trione] showed an MIC [1] of 4 µg/mL (≈ 9.82 µM) and an MIC (H. influenzae HI-3542) of 2 µg/mL (≈ 4.91 µM).

Work on `C[C@@H]1CN2c3c(cc(-c4cnccn4)c(F)c3F)CC3(C(=O)N(CN4CCOCC4)C(=O)N(CN4CCOCC4)C3=O)[C@H]2[C@H](C)O1` [Compound 4, (2R,4S,4aS)-9,10-difluoro-2,4-dimethyl-1′,3′-bis(morpholin-4-ylmethyl)-8-pyrazin-2-yl-1,2,4,4a-tetrahydro-2′H,6H-spiro[1,4-oxazino[4,3-a]quinoline-5,5′-pyrimidine]-2′,4′,6′(1′H,3′H)-trione] yielded an MIC [1] of 0.25 µg/mL (≈ 0.39 µM) and an MIC (H. influenzae HI-3542) of 0.5 µg/mL (≈ 0.779 µM).

Compound `C[C@H]1CN2c3c(cc(-c4cnccn4)c(OCCF)c3F)CC3(C(=O)NC(=O)NC3=O)[C@@H]2[C@@H](C)O1` (relative stereo) [Compound 18, rel-(2S,4R,4aR)-10-fluoro-9-(2-fluoroethoxy)-2,4-dimethyl-8-pyrazin-2-yl-1,2,4,4a-tetrahydro-2′H,6H-spiro[1,4-oxazino[4,3-a]quinoline-5,5′-pyrimidine]-2′,4′,6′(1′H,3′H)-trione] has an MIC [1] of over 64 µg/mL and an MIC (H. influenzae HI-3542) of over 64 µg/mL.

Compound `C[C@H]1CN2c3cc(F)c(-c4cnccn4)cc3CC3(C(=O)NC(=O)NC3=O)[C@@H]2[C@@H](C)O1` (relative stereo) [Compound 19, rel-(2S,4R,4aR)-9-dluoro-2,4-dimethyl-8-pyrazin-2-yl-1,2,4,4a-tetrahydro-2′H,6H-spiro[1,4-oxazino[4,3-a]quinoline-5,5′-pyrimidine]-2′,4′,6′(1′H,3′H)-trione] has an MIC [1] of 2 µg/mL (≈ 4.7 µM) and an MIC (H. influenzae HI-3542) of 2 µg/mL (≈ 4.7 µM).

With `C[C@H]1CN2c3c(cc(-c4cnccn4)c(F)c3F)CC3(C(=O)NC(=O)NC3=O)[C@@H]2[C@@H](C)O1` [Compound 3, (2S,4R,4aR)-9,10-difluoro-2,4-dimethyl-8-pyrazin-2-yl-1,2,4,4a-tetrahydro-2′H,6H-spiro[1,4-oxazino[4,3-a]quinoline-5,5′-pyrimidine]-2′,4′,6′(1′H,3′H)-trione] the MIC (H. influenzae HI-3542) was over 64 µg/mL.

For `Cc1cnc(-c2cc3c(c(F)c2F)N2C[C@@H](C)O[C@@H](C)[C@@H]2C2(C3)C(=O)NC(=O)NC2=O)cn1` [Compound 23, (2R,4S,4aS)-9,10-difluoro-2,4-dimethyl-8-(5-methylpyrazin-2-yl)-1,2,4,4a-tetrahydro-2′H,6H-spiro[1,4-oxazino[4,3-a]quinoline-5,5′-pyrimidine]-2′,4′,6′(1′H,3′H)-trione], the MIC [1] was 0.125 µg/mL (≈ 0.273 µM) and the MIC (H. influenzae HI-3542) was 1 µg/mL (≈ 2.19 µM).

`C[C@H]1CN2c3c(cc(-c4cnccn4)c(F)c3F)CC3(C(=O)NC(=O)NC3=O)[C@@H]2[C@@H](C)O1` (relative stereo) [Compound 1, rel-(2S,4R,4aR)-9,10-difluoro-2,4-dimethyl-8-pyrazin-2-yl-1,2,4,4a-tetrahydro-2′H,6H-spiro[1,4-oxazino[4,3-a]quinoline-5,5′-pyrimidine]-2′,4′,6′(1′H,3′H)-trione] gave an MIC (H. influenzae HI-3542) of 1 µg/mL (≈ 2.26 µM).

In the case of `C[C@H]1CN2c3c(F)cc(-c4cnccn4)cc3CC3(C(=O)NC(=O)NC3=O)[C@@H]2[C@@H](C)O1` (relative stereo) [Compound 15, rel-(2S,4R,4aR)-10-fluoro-2,4-dimethyl-8-pyrazin-2-yl-1,2,4,4a-tetrahydro-2′H,6H-spiro[1,4-oxazino[4,3-a]quinoline-5,5′-pyrimidine]-2′,4′,6′(1′H,3′H)-trione], the MIC [1] is reported as 1 µg/mL (≈ 2.35 µM) and the MIC (H. influenzae HI-3542) is reported as 4 µg/mL (≈ 9.4 µM).

`COc1cnc(-c2cc3c(c(F)c2F)N2C[C@@H](C)O[C@@H](C)[C@@H]2C2(C3)C(=O)NC(=O)NC2=O)cn1` [Compound 25, (2R,4S,4aS)-9,10-difluoro-8-(5-methoxypyrazin-2-yl)-2,4-dimethyl-1,2,4,4a-tetrahydro-2′H,6H-spiro[1,4-oxazino[4,3-a]quinoline-5,5′-pyrimidine]-2′,4′,6′(1′H,3′H)-trione] showed an MIC [1] of 0.125 µg/mL (≈ 0.264 µM) and an MIC (H. influenzae HI-3542) of 0.5 µg/mL (≈ 1.06 µM).

In the case of `COc1nccnc1-c1ccc2c(c1)CC1(C(=O)NC(=O)NC1=O)[C@@H]1[C@@H](C)O[C@@H](C)CN21` (relative stereo) [Compound 21, rel-(2S,4R,4aR)-8-(3-methoxypyrazin-2-yl)-2,4-dimethyl-1,2,4,4a-tetrahydro-2′H,6H-spiro[1,4-oxazino[4,3-a]quinoline-5,5′-pyrimidine]-2′,4′,6′(1′H,3′H)-trione], the MIC [1] is reported as 16 µg/mL (≈ 36.6 µM) and the MIC (H. influenzae HI-3542) is reported as 32 µg/mL (≈ 73.2 µM).

`COCCOc1c(-c2cnccn2)cc2c(c1F)N1C[C@H](C)O[C@H](C)[C@H]1C1(C2)C(=O)NC(=O)NC1=O` (relative stereo) [Compound 17, rel-(2S,4R,4aR)-10-fluoro-9-(2-methoxyethoxy)-2,4-dimethyl-8-pyrazin-2-yl-1,2,4,4a-tetrahydro-2′H,6H-spiro[1,4-oxazino[4,3-a]quinoline-5,5′-pyrimidine]-2′,4′,6′(1′H,3′H)-trione] was tested, and the MIC [1] was over 64 µg/mL and the MIC (H. influenzae HI-3542) was over 64 µg/mL.

Source: US7557100B2, “Antibacterial agents” (Pfizer Inc., priority 2005, dated 2009)
